Measured values: patent US10799501B2, “Combination of an inhibitor of PARP with an inhibitor of GSK-3 or DOT1L” (King's College London, priority 2015, dated 2020)

Legend:
Kasumi (AML1-ETO) = assay: In vitro PARPi treatment of human leukemic cell line Kasumi; format: cell-based
Method: (§1) NB4-LR2 and THP1 cell lines (kindly provided by Dr Arthur Zelent and Professor Mel Greaves respectively) were cultured in RPMI (Invitrogen) supplemented with 10% selected FBS (R10), 2 mM L-Glutamine. Kasumi cell line (kindly provided by Dr Olaf Heidenreich) was cultured in RPMI-Hepes modified (Sigma) supplemented with 20% selected FBS and 2 mM L-[…]). Cell lines were validated by qPCR for their respective oncogenes. NIH3T3 and GP2 cell line was cultured in DMEM (Invitrogen) supplemented with 10% selected FBS and 2 mM L-Glutamine. Human primary AML cells were cultured in IMEM (Invitrogen) supplemented with […], 2 mM L-Glutamine, 10 ng/mL each of human cytokines, IL3, IL6, SCF, FLT3 ligand, and TPO. Cells were kept at 37° C. and 5% CO2. Use of human primary cells was approved by King's College London committee and consents of the patients were obtained. […] Colonies were scored 6-7 days after plating. […] Samples were then washed in PBS analysed at the FACS LSRII (BD Biosciences Pharmingen) with FACS Diva. […] Cells were counted in at least 5 fields for each slide, for a total of over 100 cells. The percentage of senescent cells was calculated by the percentage of the number of blue cell in the field.

THP1 (MLL-AF9) = assay: In vitro drug treatment of human leukemic cell line THP1; format: cell-based
Method: NB4-LR2 and THP1 cell lines (kindly provided by Dr Arthur Zelent and Professor Mel Greaves respectively) were cultured in RPMI (Invitrogen) supplemented with 10% selected FBS (R10), 2 mM L-Glutamine. Kasumi cell line (kindly provided by Dr Olaf Heidenreich) was cultured in RPMI-Hepes modified (Sigma) supplemented with 20% selected FBS and 2 mM L-[…]). Cell lines were validated by qPCR for their respective oncogenes. NIH3T3 and GP2 cell line was cultured in DMEM (Invitrogen) supplemented with 10% selected FBS and 2 mM L-Glutamine. Human primary AML cells were cultured in IMEM (Invitrogen) supplemented with […], 2 mM L-Glutamine, 10 ng/mL each of human cytokines, IL3, IL6, SCF, FLT3 ligand, and TPO. Cells were kept at 37° C. and 5% CO2. Use of human primary cells was approved by King's College London committee and consents of the patients were obtained. […] Colonies were scored 6-7 days after plating. For other in vitro studies, mouse leukemic cells and primary AML cell lines were subjected to continuously Olaparib (1 μM) or LiCl (8 mM) treatment in liquid culture for whole duration as indicated in the figures or figure legends. For human leukemic cell lines, experiments were performed as described above with 5 μM Olaparib. For each assay 1×10^5 cells were collected, washed in PBS and re-suspended in Annexin V binding solution (25 mM Hepes, 140 mM KCl, 2.5 mM CaCl2 pH 7.2). After centrifugation at 500 g for five minutes the cells were incubated with the Annexin V Binding solution containing 0.25 ug/ml mouse anti Annexin V-FITC antibody (Biolegend 640906) and 1 ug/ml propidium iodide in the dark for 30 minutes at 4° C. Samples were then washed in PBS analysed at the FACS LSRII (BD Biosciences Pharmingen) with FACS Diva. Cells were cytospun onto a glass slide at 400 g for 5 minutes and then fixed for 10 minutes with 2% formaldehyde/0.2% glutaraldehyde (Sigma Aldrich). […] Cells were counted in at least 5 fields for each slide, for a total of over 100 cells. The percentage of senescent cells was calculated by the percentage of the number of blue cell in the field.

[1] = test system: E2A-PBX transformed cells; assay: In vitro drug treatment of primary murine hematopoietic cells transformed by E2A-PBX (RTTA); format: cell-based, mouse
Method: Transduction using concentrated viral supernatant expressing the oncogene of interest was carried out by centrifugation (spinoculation) at 800 g at 32° C. for 2 hours in the presence of 5 μg ml^-1 polybrene (Sigma-Aldrich). Cells were subsequently plated in 1% methylcellulose medium ([…]; Stem Cell Technologies) containing 20 ngml^-1 SCF, 10 ngml^-1 IL-3, 10 ngml^-1 IL-6 and 10 ngml^-1 granulocyte macrophage colony-stimulating factor (GM-CSF) and appropriate selection antibiotic. Colonies were counted after 7 days of culture and replated every 6-7 days at 5×103-1.5×10^4 cell density. Re-plating was performed weekly to generate primary cell lines for further analysis. After the third or fourth round of plating, cells were cultured in R20/20 medium (RPMI 1640, 20% FCS, 20% WEHI-conditioned medium, 2 mM L-glutamine, 100 U/ml penicillin, and 100 μg/ml streptomycin) supplemented with 20 ngml^-1 stem cell factor (SCF), 10 ngml^-1 interleukin (IL)-3, and 10 ngml^-1 IL-6 to establish cell lines. All recombinant murine cytokines were from PeprotechEC. […] Colonies were scored 6-7 days after plating. For other in vitro studies, mouse leukemic cells and primary AML cell lines were subjected to continuously Olaparib (1 μM) or LiCl (8 mM) treatment in liquid culture for whole duration as indicated in the figures or figure legends. For human leukemic cell lines, experiments were performed as described above with 5 μM Olaparib. […] Cells were counted in at least 5 fields for each slide, for a total of over 100 cells. The percentage of senescent cells was calculated by the percentage of the number of blue cell in the field. […] Cells were counted in at least 5 fields for each slide, for a total of over 100 cells per condition. […] Cells were counted in at least 5 fields for each slide, for a total of over 100 cells per condition. […] Cells were then washed in PBS and the differentiated cells were indicated by the deposition of dark blue insoluble formazan (NBT positive cells) and the percentage of differentiated cells were counted under microscopy. At least 200 cells were counted in most of the cases.

NB4-LR2 (PML-RARα) = assay: In vitro PARPi treatment of human leukemic cell line NB4-LR2; format: cell-based
Method: as §1

[2] = methylcellulose 7 days, 5 μM Olaparib

With O=C(c1cc(Cc2n[nH]c(=O)c3ccccc23)ccc1F)N1CCN(C(=O)C2CC2)CC1 [Olaparib, 4-[(3-[(4-cyclopropylcarbonyl)piperazin-4-yl]carbonyl)-4-fluorophenyl]methyl(2H)-phthalazin-1-one] the senescence and apoptosis (Kasumi (AML1-ETO); PARPi 72 hrs / 4 days) was “effectively induce senescence and apoptosis”, the colony forming ability (Kasumi (AML1-ETO); [2]) was “reduced the colony forming ability” and the “growth (relative proliferation) and differentiation” value (THP1 (MLL-AF9); counted on day 5 by trypan blue exclusion) was “ineffective”. The colony forming ability (THP1 (MLL-AF9); [2]) was “did not affect”, the “impact on colony forming ability” value ([1]; 1 uM Olaparib, methylcellulose 7 days) was “little impact” and the “differentiation, G1 arrest, senescence, apoptosis effects” value ([1]; PARPi treatment) was “none of these effects were observed”. For the same molecule, the “Rad51 recruitment to DNA damage sites (RAD51 foci)” value ([1]; PARPi treatment for 6 hours) was “able to form RAD51 foci”, the senescence and apoptosis (NB4-LR2 (PML-RARα); PARPi 72 hrs / 4 days) was “effectively induce senescence and apoptosis” and the colony forming ability (NB4-LR2 (PML-RARα); [2]) was “reduced the colony forming ability”.
